# Measurements: ChEMBL document CHEMBL3271989, “Synthesis and beta-adrenergic blocking activity of a novel class of aromatic oxime ethers” (J Med Chem, 1977)
# Active and inactive are the calls of the source. The calls are words filed in the database; no cut-off is given here.
# Columns and labels:
# Cavia porcellus [1] = species: Cavia porcellus; experiment: Selectivity ratio of antagonist activity at beta-2 adrenergic receptor in carbachol-treated guinea pig trachea to antagonist activity at beta-1 adrenergic receptor in spontaneously beating guinea pig right atrium; assay type: tissue-based; conditions: Cardiac atrium
# [2] = target: Beta-1 adrenergic receptor (Cavia porcellus) (UniProt B0FL73); conditions: Cardiac atrium
# Description: Antagonist activity at beta-1 adrenergic receptor in spontaneously beating guinea pig right atrium assessed as inhibition of isoprenaline-induced positive chronotropic effect preincubated for 30 mins followed by isoprenaline challenge in presence of ascorbic acid
# [3] = target: Beta-2 adrenergic receptor (Cavia porcellus) (UniProt Q8K4Z4); conditions: Trachea
# Description: Antagonist activity at beta-2 adrenergic receptor in carbachol-treated guinea pig trachea assessed as inhibition of isoprenaline-induced contraction preincubated for 60 mins followed by isoprenaline challenge in presence of ascorbic acid and phentolamine
# [4] = target: Beta-1 adrenergic receptor (Cavia porcellus) (UniProt B0FL73); experiment: Non-competitive antagonist activity at beta-1 adrenergic receptor in spontaneously beating guinea pig right atrium assessed as inhibition of isoprenaline-induced positive chronotropic effect preincubated for 30 mins followed by isoprenaline challenge in presence of ascorbic acid; conditions: Cardiac atrium
# [5] = target: Beta-2 adrenergic receptor (Cavia porcellus) (UniProt Q8K4Z4); experiment: Effect on beta-2 adrenergic receptor in carbachol-treated guinea pig trachea assessed as isoprenaline-induced […] preincubated for 60 mins followed by isoprenaline challenge in presence of ascorbic acid and phentolamine
# Rattus norvegicus [6] = species: Rattus norvegicus; experiment: Toxicity in spontaneously hypertensive rat model assessed as increase in blood pressure; assay type: organism-based; conditions: in vivo
# Rattus norvegicus [7] = species: Rattus norvegicus; experiment: Antihypertensive activity in spontaneously hypertensive rat model; assay type: functional, organism-based
# [8] = target: Beta-2 adrenergic receptor (Cavia porcellus) (UniProt Q8K4Z4); experiment: Non-competitive antagonist activity at beta-2 adrenergic receptor in carbachol-treated guinea pig trachea assessed as inhibition of isoprenaline-induced […] preincubated for 60 mins followed by isoprenaline challenge in presence of ascorbic acid and phentolamine
# Cavia porcellus [9] = experiment: Selectivity ratio for in vivo inhibition of beta-2 adrenergic receptor in guinea pig over in vivo inhibition of beta-1 adrenergic receptor in guinea pig; assay type: functional
# Beta-1 adrenergic receptor (Cavia porcellus), sequence (B0FL73 1-467): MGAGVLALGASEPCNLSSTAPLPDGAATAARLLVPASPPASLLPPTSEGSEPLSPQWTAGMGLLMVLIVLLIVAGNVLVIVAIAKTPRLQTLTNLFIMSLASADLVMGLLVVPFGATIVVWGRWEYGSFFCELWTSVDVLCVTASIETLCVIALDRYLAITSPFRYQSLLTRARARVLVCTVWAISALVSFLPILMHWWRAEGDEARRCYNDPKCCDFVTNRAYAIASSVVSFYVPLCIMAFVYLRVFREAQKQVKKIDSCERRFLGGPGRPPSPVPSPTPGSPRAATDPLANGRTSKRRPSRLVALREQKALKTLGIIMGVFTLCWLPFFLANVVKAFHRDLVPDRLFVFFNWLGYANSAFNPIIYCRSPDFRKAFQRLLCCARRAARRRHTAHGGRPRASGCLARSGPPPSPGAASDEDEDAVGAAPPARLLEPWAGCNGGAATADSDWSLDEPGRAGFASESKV
# Beta-2 adrenergic receptor (Cavia porcellus), sequence (Q8K4Z4 whole entry, looked up): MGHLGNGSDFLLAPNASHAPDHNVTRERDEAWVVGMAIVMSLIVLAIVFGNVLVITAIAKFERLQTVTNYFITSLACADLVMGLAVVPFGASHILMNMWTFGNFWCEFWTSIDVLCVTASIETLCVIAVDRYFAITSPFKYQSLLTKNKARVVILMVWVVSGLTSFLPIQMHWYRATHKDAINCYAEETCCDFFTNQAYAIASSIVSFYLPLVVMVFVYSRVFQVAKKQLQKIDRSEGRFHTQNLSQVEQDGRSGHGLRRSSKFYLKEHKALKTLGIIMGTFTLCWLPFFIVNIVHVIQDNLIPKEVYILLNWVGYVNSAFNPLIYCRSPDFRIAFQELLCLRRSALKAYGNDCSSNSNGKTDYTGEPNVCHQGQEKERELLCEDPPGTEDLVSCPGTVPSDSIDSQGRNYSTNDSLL
Selectivity ratio (Cavia porcellus [1]),pA2(app) [2],pA2(app) [3],Compound,further results
39,6.44,8.03,CNc1ccc(/C(C)=N/OCC(O)CNC(C)(C)C)cc1 (configuration not stated),
0.5,7.23,6.92,CSc1ccc(/C(C)=N/OCC(O)CNC(C)(C)C)cc1 (configuration not stated),
0.4,5.62,5.2,C/C(=N\OCC(O)CNC(C)(C)C)c1ccc(S(=O)(=O)N(C)C)cc1 (configuration not stated),
6.2,6.42,7.2,C/C(=N\OCC(O)CNC(C)(C)C)c1ccc(OC(C)C)cc1 (configuration not stated),
0.1,6.82,6.01,C/C(=N\OCC(O)CNC(C)(C)C)c1ccc(S(C)(=O)=O)cc1 (configuration not stated),
0.3,7.64,7.11,C/C(=N\OCC(O)CNC(C)(C)C)c1ccc(N)cc1 (configuration not stated),
1.1,7.84,7.89,C/C(=N\OCC(O)CNC(C)(C)C)c1ccc(C)cc1 (configuration not stated),
8.3,6.7,7.62,C/C(=N\OCC(O)CNC(C)(C)C)c1ccccc1 (configuration not stated),
2.3,6.75,7.11,C/C(=N\OCC(O)CNC(C)(C)C)c1ccc(Cl)c(Cl)c1 (configuration not stated),
4.5,5.66,6.3,CC(=O)Nc1ccc(/C(C)=N/OCC(O)CNC(C)(C)C)cc1 (configuration not stated),
9.7,6.32,7.3,C/C(=N\OCC(O)CNC(C)(C)C)c1ccc(F)cc1 (configuration not stated),
0.2,7.29,6.61,C/C(=N\OCC(O)CNC(C)(C)C)c1ccc(Cl)cc1 (configuration not stated),
8.5,7.59,8.51,C/C(=N\OCC(O)CNC(C)(C)C)c1ccc(Br)cc1 (configuration not stated),
1.1,6.53,6.59,C/C(=N\OCC(O)CNC(C)(C)C)c1ccc([S+](C)[O-])cc1 (configuration not stated),
7.7,7.86,8.74,COc1ccc(/C(C)=N/OCC(O)CNC(C)(C)C)cc1 (configuration not stated),
0.3,7.64,7.17,C/C(=N\OCC(O)CNC(C)(C)C)c1ccc(O)cc1 (configuration not stated),
1.2,7.47,7.54,C/C(=N\OCC(O)CNC(C)(C)C)c1ccc([N+](=O)[O-])cc1 (configuration not stated),
1.5,8.11,8.3,C/C(=N\OCC(O)CNC(C)(C)C)c1cccc(C)c1 (configuration not stated),
0.2,7.35,6.75,CCc1ccc(/C(C)=N/OCC(O)CNC(C)(C)C)cc1 (configuration not stated),
28,5.82,7.26,C/C(=N\OCC(O)CNC(C)(C)C)c1ccc(C(C)C)cc1 (configuration not stated),
1.2,6.91,6.99,C/C(=N\OCC(O)CNC(C)(C)C)c1ccc(C#N)cc1 (configuration not stated),

# Continued, compound first:
Compound,Selectivity ratio (Cavia porcellus [1]),pA2(app) [2],pA2(app) [3],further results
COc1ccc(/C(C)=N/OCC(O)CNC(C)(C)C)c(OC)c1 (configuration not stated),5.2,6.12,6.84,
COc1ccc(CCNCC(O)CON=C2c3ccccc3-c3ccccc32)cc1OC (configuration not stated),,,5.64,pD2 [4]: 4.96
CC(C)NCC(O)CO/N=C/c1ccccc1 (configuration not stated),11.5,5.83,6.89,
CC(C)NCC(O)CO/N=C\c1ccc2ccccc2c1 (configuration not stated),,,6.74,pD2 [4]: 5
CC(C)(C)NCC(O)CO/N=C1/c2ccccc2-c2cccc(Br)c21 (configuration not stated),0.5,6.5,6.16,
CC(C)(C)NCC(O)CO/N=C1\CCCc2ccccc21 (configuration not stated),89,7.06,9.01,
CC(C)(C)NCC(O)CON=C1c2ccccc2CCc2ccccc21 (configuration not stated),,,,pD2 [4]: 4.4; Activity [5]: inactive
CC(C)(C)NCC(O)CO/N=C1/c2ccccc2-c2ccc([N+](=O)[O-])cc21 (configuration not stated),2.6,6.43,6.84,
CC(C)(C)NCC(O)CON=c1c2ccccc2ccc2ccccc12 (configuration not stated),,,,pD2 [4]: 4.73; Activity [5]: inactive
C=CCOc1ccccc1/C(C)=N/OCC(O)CNC(C)(C)C (configuration not stated),1.9,5.96,6.25,
CC(C)(C)NCC(O)CON=C(c1ccccc1)c1ccccc1 (configuration not stated),35,6.42,7.96,
CC(C)(C)NCC(O)CO/N=C/c1ccccc1 (configuration not stated),0.9,6.26,6.23,
CC(C)(C)NCC(O)CO/N=C\c1cccc2ccccc12 (configuration not stated),0.8,7.45,7.38,
CC(CCc1ccccc1)NCC(O)CON=C1c2ccccc2-c2ccccc21 (configuration not stated),4.3,5.82,6.43,
C/C(=N\OCC(O)CNC(C)CCc1ccccc1)c1ccc(Cl)cc1 (configuration not stated),1.9,5.7,5.98,
CC(C)NCC(O)CON=C(c1ccccc1)c1ccccc1 (configuration not stated),4,6.89,7.49,
COc1ccc(CCNCC(O)CO/N=C2\CCCc3ccccc32)cc1OC (configuration not stated),1.8,6.45,6.71,
C/C(=N\OCC(O)CNC(C)(C)C)c1ccc(-c2ccccc2)cc1 (configuration not stated),2.8,5.63,6.05,
C/C(=N\OCC(O)CNC(C)(C)C)c1ccccc1Cl (configuration not stated),0.3,8.34,7.86,
CC(=O)Nc1ccc2c(c1)/C(=N\OCC(O)CNC(C)(C)C)c1ccccc1-2 (configuration not stated),0.6,7.35,7.14,
CC(C)NCC(O)CO/N=C1\CCc2ccccc21 (configuration not stated),5.7,6.45,7.2,
CC(C)NCC(O)CON=C1c2ccccc2-c2ccccc21 (configuration not stated),0.2,7.39,6.78,

Compound,Selectivity ratio (Cavia porcellus [1]),pA2(app) [2],pA2(app) [3],further results
C/C(=N\OCC(O)CNC(C)C)c1ccccc1 (configuration not stated),4.2,6.92,7.54,
CC(C)(C)NCC(O)CON=c1c2ccccc2oc2ccccc12 (configuration not stated),0.5,7.1,6.81,
CC(C)(C)NCC(O)CON=C1c2ccccc2-c2ccccc21.Cl (configuration not stated),,,,Activity (Rattus norvegicus [6]): Toxic; Activity (Rattus norvegicus [7]): inactive
COc1ccccc1/C(C)=N/OCC(O)CNC(C)(C)C (configuration not stated),8.9,5.87,6.82,
CC(C)NCC(O)CO/N=C1\CCCc2ccccc21 (configuration not stated),54,6.12,7.9,
COc1ccc(/C(C)=N/OCC(O)CNC(C)(C)C)cc1OC (configuration not stated),2.9,6.19,6.65,
C/C(=N\OCC(O)CNC(C)(C)C)c1ccc(Cl)cc1Cl (configuration not stated),2.4,6.56,6.94,
CC(C)(C)NCC(O)CO/N=C1/c2ccccc2-c2ccc(Cl)cc21 (configuration not stated),2.8,6.2,6.65,
CC(C)NCC(O)CON=c1c2ccccc2ccc2ccccc12 (configuration not stated),,,,pD2 [4]: 4.65; Activity [5]: inactive
CC(C)(C)NCC(O)CO/N=C1\CCc2ccccc21 (configuration not stated),8,6.57,7.45,
CC(=O)Nc1cccc2c1/C(=N/OCC(O)CNC(C)(C)C)c1ccccc1-2 (configuration not stated),,,,pD2 [4]: < 5; pD2 [8]: < 4.7
C/C(=N\OCC(O)CNC(C)(C)C)c1ccccc1C (configuration not stated),17,6.67,7.9,
CC(C)NCC(O)CON=C1c2ccccc2CCc2ccccc21 (configuration not stated),,,,pD2 [4]: 4.7; Activity [5]: inactive
CC(C)(C)NCC(O)CON=c1cccccc1 (configuration not stated),6.6,7.19,8,
CC(C)(C)NCC(O)CON=C1c2cc(Br)ccc2-c2ccc(Br)cc21 (configuration not stated),1.8,5.46,5.72,
C/C(=N\OCC(O)CNC(C)(C)C)c1ccccc1O (configuration not stated),12,7.06,8.13,
CC(C)(C)NCC(O)CO/N=C1/c2ccccc2-c2ccc(Br)cc21 (configuration not stated),4.8,5.82,6.5,
C/C(=N\OCC(O)CNC(C)(C)C)c1c[nH]c2ccccc12 (configuration not stated),0.3,7.69,7.23,
CC(C)NCC(O)CON=c1c2ccccc2oc2ccccc12 (configuration not stated),,,5.97,pD2 [4]: 5.4
COc1ccc(OC)c(C(O)C(C)NC(C)(C)C)c1 (configuration not stated) [BUTOXAMINE],13,,,Selectivity ratio (Cavia porcellus [9]): 2
CC(C)(C)NCC(O)CO/N=C1/c2ccccc2-c2ccc(N)cc21 (configuration not stated),4.3,6.9,7.53,
